According to patent US12606553B2, “Crystalline forms, compositions containing same, and methods of their use” (FOGHORN THERAPEUTICS INC., priority 2021, dated 2026):

Experiments:
Format in all cases: physicochemical
[1] = Dynamic vapor sorption (DVS), with XRPD on the post-DVS sample; settings: for DVS weight increase during exposure to 80% RH: 25° C., humidity ramped 0 to 95% RH, value at 80% RH; for structural change by XRPD after DVS (exposure to high humidity): XRPD on post-DVS sample; for hygroscopicity classification from DVS: based on weight increase up to 80% RH
Protocol: Dynamic vapor sorption (DVS) was carried out using the TA Instruments Q5000 SA. A predefined amount of the sample, 2.0 to 10.0 mg, was placed in a platinum pan. The sample was allowed to equilibrate at 50° C. at 0% RH for a period of 60 minutes. The sample was then equilibrated at 25° C. before ramping the humidity from 0 to 95% RH at 5% increments every hour. A similar ramp profile was used for desorption cycle. XRPD analysis was also performed on post DVS sample.

[2] = Thermal gravimetric analysis (TGA) and DSC: thermal degradation; settings: heated at 10° C./minute under nitrogen
Protocol: (§1) DSC data was collected on a TA Instruments Q2000 DSC. A predefined amount of the sample, 2.0 to 10.0 mg, was placed in an aluminum pan and heated at 5° C./minute from 25° C. to 220° C. A purge of dry nitrogen at 100 mL/minute was maintained over the sample. The instrument control and data acquisition are acquired using Q Advantage software release version 5.5.23. The data was processed and presented using the TA Universal Analysis 2000 software version 4.5A build 4.5.0.5.
as §1, with “TGA” for “DSC”, “Q5000 TGA.” for “Q2000 DSC.”, “10°” for “5°”, “40°” for “25°”, “300° C., or varied as experimentation dictated.” for “220° C.”, “25” for “100”

[3] = Evaporative salt and co-crystal screen (1H NMR, HPLC); settings: combined with sodium hydroxide and potassium hydroxide
[4] = Competitive suspension equilibration study; settings: room temperature and 60° C.
Protocol: A competitive suspension equilibration study was carried out to identify the relative stability of the two crystalline forms of the compound of formula (I) in aqueous and organic solvent systems. Competitive suspension equilibration experiments were conducted in ethyl acetate, 50% methanol/water (v/v) and 50% acetonitrile/water (v/v) at room temperature and 60° C. […] Further crystalline forms of the compound of formula (I) (e.g., the first and second crystalline forms of the compound of formula (I)) were added for conversion material and to act as seeds. Each suspension was allowed to stir for 7 or 14 days, and were analyzed via XRPD to determine which form the solids had converted to.

[5] = Single solvent slurry screen
Protocol: Magnetic stirrers were added to vials, and the suspensions were allowed to stir at room temperature for 4 days. Solid samples generated were analyzed via XRPD to assess crystallinity and crystal structure.

[6] = Temperature cycled single solvent slurry screen
Protocol: Magnetic stirrers were added to vials, and the suspensions were cycled between 50° C. and 5° C. for three cycles with agitation. Solid samples generated were analyzed via XRPD to assess crystallinity and crystal structure. […] Solid samples were obtained from slurries in all other solvents screened.

[7] = Binary solvent slurry screen; settings: room temperature
Protocol: Solvent combinations were selected based on solvent properties, functionality, and miscibility. […] Magnetic stirrers were added to vials, and the suspensions were allowed to stir at room temperature for 5 days.

Compound | DVS weight increase during exposure to 80% RH [1] | structural change by XRPD after DVS (exposure to high humidity) [1] | hygroscopicity classification from DVS [1] | molecular degradation onset (TGA/DSC) [2] [°C] | molecular degradation temperature (TGA/DSC), degradation from [2] [°C] | chemical stability in a basic environment (1H NMR, HPLC) [3] | form conversion of mixed first and second crystalline forms (XRPD) ([4]; aqueous solvents (methanol/water 14 days, acetonitrile/water 7 days)) | form conversion of mixed first and second crystalline forms (XRPD) ([4]; ethyl acetate, methanol, acetonitrile, within seven days) | solubility in THF ([5]; room temperature slurry) | crystal structure after slurry (XRPD), form stability ([5]; single solvents except THF, stirred at room temperature for 4 days) | crystal structure after slurry (XRPD), form stability ([6]; single solvents except THF, cycled between 50° C. and 5° C. for three cycles) | solubility in THF ([6]; temperature cycled slurry) | crystal structure after slurry (XRPD), form stability ([7]; 50/50 (v/v) solvent mixtures except methanol/THF, 5 days) | solubility in methanol/THF ([7]; 50/50 (v/v))
COC[C@H](NC(=O)c1ccn(S(C)(=O)=O)c1)C(=O)Nc1nc(-c2cccc(N3C[C@@H](C)O[C@@H](C)C3)n2)cs1 [first crystalline form of the compound of formula (I)] | 1.4 % (w/w) | no structural changes occurred | slightly hygroscopic | 254.3 | 220 | – | – | – | – | – | – | – | – | –
COC[C@H](NC(=O)c1ccn(S(C)(=O)=O)c1)C(=O)Nc1nc(-c2cccc(N3C[C@@H](C)O[C@@H](C)C3)n2)cs1 [compound of formula (I)] | – | – | – | – | – | molecular degradation was visible | did not result in the conversion of either crystalline form to the other | fully converted to the second crystalline form | – | – | – | – | – | –
COC[C@H](NC(=O)c1ccn(S(C)(=O)=O)c1)C(=O)Nc1nc(-c2cccc(N3C[C@@H](C)O[C@@H](C)C3)n2)cs1 [second crystalline form of the compound of formula (I)] | 0.04 % (w/w) | no structural changes occurred | non-hygroscopic | – | 240 | – | – | – | extremely high | the same crystal structure | the same crystal structure | extremely high | the same crystal structure | high
